The source of these data is US7476764B2, “Phenylcarboxyamides as beta-secretase inhibitors” (Bristol-Myers Squibb Company, priority 2005, dated 2009).

Where a name gives a salt, the structure may show the parent alone.

In the assay the target is T1, BACE1 enzyme (Homo sapiens, UniProt P56817).
T1 construct: The HEK293-9B.A1 cell line, which overexpresses the BACE1 enzyme, was derived from HEK293 cells; endogenous in cells; washed 48,000 x g pellet of the cell homogenate
T1 sequence (P56817 46-501): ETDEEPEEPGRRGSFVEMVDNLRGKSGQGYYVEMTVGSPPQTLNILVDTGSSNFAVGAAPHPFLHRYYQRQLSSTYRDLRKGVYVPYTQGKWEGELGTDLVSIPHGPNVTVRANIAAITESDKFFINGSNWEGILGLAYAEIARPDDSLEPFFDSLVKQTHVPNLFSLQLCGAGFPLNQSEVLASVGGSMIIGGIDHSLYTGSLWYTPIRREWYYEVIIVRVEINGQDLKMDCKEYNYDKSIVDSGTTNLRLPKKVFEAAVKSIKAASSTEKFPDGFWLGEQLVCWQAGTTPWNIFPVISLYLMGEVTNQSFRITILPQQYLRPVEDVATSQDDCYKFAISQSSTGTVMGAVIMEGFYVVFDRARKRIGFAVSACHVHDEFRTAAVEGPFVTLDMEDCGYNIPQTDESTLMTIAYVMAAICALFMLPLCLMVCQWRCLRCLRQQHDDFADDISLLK
As to the kind of experiment: Radioligand displacement assay with a radiolabeled BACE inhibitor on HEK293-9B.A1 cell homogenate. It counts as binding. The following applies: displacement of 1 nM tritiated radioligand, HEK293-9B.A1 homogenate, pH 5.0, 1.5 hr at 25° C.; read-out: Activity Rating (activity based on IC50 values). How it is done: Radioligand displacement assays with a radiolabeled BACE inhibitor (WO 2004 013098, compound 3, where the methoxy group is substituted for C(^3H)3) were carried out using standard methods (Keen, M. (1999) in Receptor Binding Techniques (Walker, J. M. ed) p. 106 Humana Press, Totowa, N.J.). The HEK293-9B.A1 cell line, which overexpresses the BACE1 enzyme, was derived from HEK293 cells (Simmons, N. L. (1990) A cultured human renal epitheloid cell line responsive to vasoactive intestinal peptide. Exp. Physiol. 75:309-19.) by RAGE™ (Harrington, J. J. et al. (2001) Creation of genome-wide protein expression libraries using random activation of gene expression. Nat. Biotechnol. 19:440-5; U.S. Pat. Nos. 6,410,266 and 6,361,972). T225 flask cultures of HEK293-9B.A1 were grown to 80% confluency in DMEM supplemented with 2 mM L-glutamine, 10 μg/ml penicillin, 10 μg/ml streptomycin, 3 μg/ml puromycin, 100 nM methotrexate, and 10% fetal bovine serum (Invitrogen, Carlsbad, Calif.), harvested, and resuspended at 2×10^8 cells per 10 ml of lysis buffer consisting of 50 mM HEPES pH 7.0 containing a protease inhibitor cocktail of AEBSF 104 μM, aprotinin 80 nM, leupeptin 2 μM, bestatin 4 μM, pepstatin A 1.5 μM, and E-64 1.4 μM (0.1% of protease inhibitor cocktail P8340, Sigma-Aldrich, St. Louis, Mo.) at 4° C. The resuspended cells were homogenized using a Polytron (Brinkman, Westbury, N.Y.) at setting 6 for 10 sec., then centrifuged at 48,000×g for 10 min. The resulting pellet was washed by repeating the resuspension, homogenization and centrifugation steps. The final pellet was resuspended in buffer at 4° C. to yield a total protein concentration of 5 mg/ml, then aliquots were frozen in liquid nitrogen for further storage at −70° C. Immediately before carrying out a binding assay, an aliquot of cell homogenate was thawed and diluted to a concentration of 100 μg/ml in assay buffer consisting of 50 mM HEPES pH 5.0 and 0.1% CHAPSO. Assays were initiated in polypropylene 96-well plates (Costar, Cambridge, Mass.) by the addition of 200 μl of cell homogenate to 50 μl of assay buffer containing 1 nM radioligand (WO 2004 013098, compound 3, where the methoxy group is substituted for C(^3H)3: 80 Ci/mMol) and various concentrations of unlabelled compounds, and incubated for 1.5 hr. at 25° C. Separation of bound from free radioligand was by filtration on GFF glass fiber filters (Innotech Biosystems International, Lansing, Mich.) using an Innotech cell harvester.
For orientation: Loss of bound radioactivity is the signal in a displacement assay; it reports binding, not function.
With `CO/N=C(\C)c1cc(C(=O)N[C@@H](Cc2cc(F)cc(F)c2)[C@H](O)CNCc2cccc(OC)c2)cc(N(C)S(C)(=O)=O)c1` [Example 30, N-((2S,3R)-4-(3-methoxybenzylamino)-1-(3,5-difluorophenyl)-3-hydroxybutan-2-yl)-3-((E)-1-(methoxyimino)ethyl)-5-(N-methylmethan-2-ylsulfonamido)benzamide TFA salt], the IC50 (usually the point on the concentration scale where inhibition reaches its midpoint) was < 100 nM.
To `CCCN(CCC)C(=O)c1cc(C(=O)N[C@@H](Cc2cc(F)cc(F)c2)[C@H](O)CNCc2cccc(OC)c2)cc(/C(C)=N/OCc2ccccc2)c1` [Example 4, N^1-((2S,3R)-4-(3-methoxybenzylamino)-1-(3,5-difluorophenyl)-3-hydroxybutan-2-yl)-5-((E)-1-(benzyloxyimino)ethyl)-N^3,N^3-dipropylisophthalamide TFA salt] belongs < 100 nM; to `C=CCO/N=C(\C)c1cc(C(=O)N[C@@H](Cc2cc(F)cc(F)c2)[C@H](O)CNCc2cccc(OC)c2)cc(C(=O)N(C)CCC)c1` [Example 13, N^1-((2S,3R)-4-(3-methoxybenzylamino)-1-(3,5-difluorophenyl)-3-hydroxybutan-2-yl)-5-((E)-1-(allyloxyimino)ethyl)-N^3-methyl-N^3-propylisophthalamide hydrochloride], < 100 nM; to `CCCN(CCC)C(=O)c1cc(C(=O)N[C@@H](Cc2cc(F)cc(F)c2)[C@H](O)CNCc2cccc(OC)c2)cc(/C(C)=N/O)c1` [Example 5, N^1-((2S,3R)-4-(3-methoxybenzylamino)-1-(3,5-difluorophenyl)-3-hydroxybutan-2-yl)-5-((E)-1-(hydroxyimino)ethyl)-N^3,N^3-dipropylisophthalamide hydrochloride], < 100 nM.
To `CCCN(C)C(=O)c1cc(C(C)=O)cc(C(=O)N[C@@H](Cc2cc(F)cc(F)c2)[C@H](O)CNCc2cccc(OC)c2)c1` [Example 8, N^1-((2S,3R)-4-(3-methoxybenzylamino)-1-(3,5-difluorophenyl)-3-hydroxybutan-2-yl)-5-acetyl-N^3-methyl-N^3-propylisophthalamide TFA salt] belongs < 100 nM.
The result for `COc1cccc(CNC[C@@H](O)[C@H](Cc2cc(F)cc(F)c2)NC(=O)c2cc(C(C)O)cc(N3CCCCS3(=O)=O)c2)c1` (stereo partly drawn) [Example 23, N-[(1S,2R)-1-(3,5-difluoro-benzyl)-2-hydroxy-3-(3-methoxy-benzylamino)-propyl]-3-(1,1-dioxo-1λ^6-[1,2]thiazinan-2-yl)-5-(1-hydroxy-ethyl)-benzamide TFA salt] reads < 100 nM; that for `CO/N=C(\C)c1cc(C(=O)N[C@@H](Cc2cc(F)cc(F)c2)[C@H](O)CNCc2cccc(OC)c2)cc(N(c2ccccc2)S(C)(=O)=O)c1` [Example 38, N-((2S,3R)-4-(3-methoxybenzylamino)-1-(3,5-difluorophenyl)-3-hydroxybutan-2-yl)-3-((E)-1-(methoxyimino)ethyl)-5-(N-phenylmethan-10-ylsulfonamido)benzamide], < 100 nM; that for `COc1cccc(CNC[C@@H](O)[C@H](Cc2cc(F)cc(F)c2)NC(=O)c2cc(C(C)=O)cc(N(c3ccccc3)S(C)(=O)=O)c2)c1` [Example 36, N-((2S,3R)-4-(3-methoxybenzylamino)-1-(3,5-difluorophenyl)-3-hydroxybutan-2-yl)-3-acetyl-5-(N-phenylmethan-10-ylsulfonamido)benzamide TFA salt], < 100 nM.
In the case of `COc1cccc(CNC[C@@H](O)[C@H](Cc2cc(F)cc(F)c2)NC(=O)c2cc(C(=O)NC(C)c3ccc(F)cc3)cc(C(C)O)c2)c1` (stereo partly drawn) [Example 48, N^1-((2S,3R)-4-(3-methoxybenzylamino)-1-(3,5-difluorophenyl)-3-hydroxybutan-2-yl)-N^3-(1-(4-fluorophenyl)ethyl)-5-(1-hydroxyethyl)isophthal-amide TFA salt], the concentration for half-maximal inhibition (IC50) was < 100 nM.
